The values below come from publication PMC10507085, “Pharmacological inhibition of TBK1/IKKε blunts immunopathology in a murine model of SARS-CoV-2 infection” (Nature Communications, 2023).

Holding throughout (assay): biochemical
Common to all, as to set-up: KINOMEscan competition binding, DNA-tagged kinase against immobilised ligand, qPCR read-out
Holding throughout (conditions): read-out: Percent Control
Background: Real-time PCR tracks product formation cycle by cycle.

The target in one experiment is ACVR1 (Homo sapiens, UniProt Q04771). As to the method:
(§1) The KINOMEscan^TM kinase assays[65] were performed by Eurofins DiscoverX Corporation. For each kinase, the assay relies on the ability of the tested compound to compete against an immobilised ligand for binding to the DNA-tagged kinase. RT-qPCR is then used to measure the quantity of kinase molecules bound to the immobilised ligand, which is decreased if the tested compound competed with the kinase-ligand interaction. An 11-point 3-fold serial dilution of IDX compound was prepared in 100% DMSO at 100× final test concentration and subsequently diluted to 1× in the assay. […]

In the next experiment the target is ACVR2B (Homo sapiens, UniProt Q13705). How it is done: as §1
Sequence of ACVR2B (Q13705 whole entry): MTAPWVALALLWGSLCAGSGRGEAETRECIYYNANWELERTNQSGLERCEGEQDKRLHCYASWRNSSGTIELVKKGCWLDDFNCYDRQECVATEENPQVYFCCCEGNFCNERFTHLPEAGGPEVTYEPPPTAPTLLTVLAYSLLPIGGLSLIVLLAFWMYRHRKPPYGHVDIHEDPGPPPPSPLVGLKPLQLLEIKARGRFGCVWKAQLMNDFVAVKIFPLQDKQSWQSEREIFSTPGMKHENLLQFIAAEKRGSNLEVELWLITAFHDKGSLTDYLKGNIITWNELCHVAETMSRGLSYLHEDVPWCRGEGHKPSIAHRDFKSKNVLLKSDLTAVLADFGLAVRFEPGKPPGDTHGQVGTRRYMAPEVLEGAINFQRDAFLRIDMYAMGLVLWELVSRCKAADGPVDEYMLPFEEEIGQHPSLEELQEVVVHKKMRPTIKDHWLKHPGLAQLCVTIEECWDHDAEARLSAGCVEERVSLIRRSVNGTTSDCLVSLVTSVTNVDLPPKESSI
The target in the next experiment is AKT3 (Homo sapiens, UniProt Q9Y243). As to the method: as §1
Sequence of AKT3 (Q9Y243 whole entry): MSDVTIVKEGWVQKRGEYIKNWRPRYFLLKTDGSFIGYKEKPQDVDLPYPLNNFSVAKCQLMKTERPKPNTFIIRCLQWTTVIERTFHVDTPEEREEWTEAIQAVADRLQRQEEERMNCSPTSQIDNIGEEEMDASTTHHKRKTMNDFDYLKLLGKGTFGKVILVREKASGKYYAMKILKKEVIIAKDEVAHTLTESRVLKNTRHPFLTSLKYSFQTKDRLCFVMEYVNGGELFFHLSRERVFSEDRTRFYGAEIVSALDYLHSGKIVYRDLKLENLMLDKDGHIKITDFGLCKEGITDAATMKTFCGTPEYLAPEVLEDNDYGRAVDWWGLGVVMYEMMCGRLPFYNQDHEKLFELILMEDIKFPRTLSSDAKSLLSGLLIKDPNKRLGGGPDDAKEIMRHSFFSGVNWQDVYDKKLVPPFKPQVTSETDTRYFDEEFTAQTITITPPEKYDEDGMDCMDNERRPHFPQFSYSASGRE
For a further experiment, the target named is CDK7 (Homo sapiens, UniProt P50613). How it is done:
as §1

The target in the next experiment is DSTYK (Homo sapiens, UniProt Q6XUX3). How it is done: as §1
A further experiment deals with ERBB2 (Homo sapiens, UniProt P04626). As to the method: as §1
Sequence of ERBB2 (P04626 whole entry): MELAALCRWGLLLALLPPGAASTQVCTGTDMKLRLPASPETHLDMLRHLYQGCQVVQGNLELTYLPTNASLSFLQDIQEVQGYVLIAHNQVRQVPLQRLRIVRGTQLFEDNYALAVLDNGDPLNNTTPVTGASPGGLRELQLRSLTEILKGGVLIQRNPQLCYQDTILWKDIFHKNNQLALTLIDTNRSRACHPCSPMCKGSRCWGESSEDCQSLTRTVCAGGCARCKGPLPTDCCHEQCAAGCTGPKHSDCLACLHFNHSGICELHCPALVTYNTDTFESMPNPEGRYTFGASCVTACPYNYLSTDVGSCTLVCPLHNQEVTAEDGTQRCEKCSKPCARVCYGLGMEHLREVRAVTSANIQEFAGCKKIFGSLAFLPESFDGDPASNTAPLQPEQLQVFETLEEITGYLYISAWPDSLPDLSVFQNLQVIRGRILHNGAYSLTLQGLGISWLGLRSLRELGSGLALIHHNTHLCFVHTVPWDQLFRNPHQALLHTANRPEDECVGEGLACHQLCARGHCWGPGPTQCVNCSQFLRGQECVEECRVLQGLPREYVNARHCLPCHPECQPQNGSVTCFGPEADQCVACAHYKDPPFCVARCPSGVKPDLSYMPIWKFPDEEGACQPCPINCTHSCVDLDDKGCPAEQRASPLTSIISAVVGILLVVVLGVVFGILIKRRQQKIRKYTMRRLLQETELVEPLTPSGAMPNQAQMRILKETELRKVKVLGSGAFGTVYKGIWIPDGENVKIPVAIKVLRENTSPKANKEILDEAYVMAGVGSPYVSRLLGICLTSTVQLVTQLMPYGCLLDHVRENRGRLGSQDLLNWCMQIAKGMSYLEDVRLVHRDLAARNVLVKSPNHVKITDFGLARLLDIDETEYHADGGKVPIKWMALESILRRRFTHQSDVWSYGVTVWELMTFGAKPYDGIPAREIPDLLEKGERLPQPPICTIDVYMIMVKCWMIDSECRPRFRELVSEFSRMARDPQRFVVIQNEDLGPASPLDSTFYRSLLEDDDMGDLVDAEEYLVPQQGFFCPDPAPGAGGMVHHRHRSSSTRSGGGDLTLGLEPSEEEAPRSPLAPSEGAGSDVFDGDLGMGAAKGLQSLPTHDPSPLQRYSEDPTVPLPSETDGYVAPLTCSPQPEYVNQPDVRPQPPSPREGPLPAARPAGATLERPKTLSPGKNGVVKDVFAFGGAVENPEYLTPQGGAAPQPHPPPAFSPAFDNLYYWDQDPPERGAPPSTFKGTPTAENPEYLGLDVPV
Another experiment deals with FLT3 (Homo sapiens, UniProt P36888). How it is done:
as §1

Another experiment addresses GAK (Homo sapiens, UniProt O14976). How it is done: as §1
The target of a further experiment is MAP3K15 (Homo sapiens, UniProt Q6ZN16). How it is done: as §1
Another experiment concerns the target MAPK1 (Homo sapiens, UniProt P28482). As to the method:
as §1

Another experiment deals with MAPK13 (Homo sapiens, UniProt O15264). As to the method:
as §1

In a further experiment the target is MATK (Homo sapiens, UniProt P42679). How it is done: as §1
Another experiment deals with MYLK (Homo sapiens, UniProt Q15746). As to the method: as §1
The next experiment concerns the target NUAK1 (Homo sapiens, UniProt O60285). How it is done: as §1
Another experiment concerns the target PHKG1 (Homo sapiens, UniProt Q16816). As to the method:
as §1

The next experiment addresses PIK3CB (Homo sapiens, UniProt P42338). How it is done:
as §1

The target of a further experiment is PIP4K2C (Homo sapiens, UniProt Q8TBX8). How it is done: as §1
Sequence of PIP4K2C (Q8TBX8 whole entry): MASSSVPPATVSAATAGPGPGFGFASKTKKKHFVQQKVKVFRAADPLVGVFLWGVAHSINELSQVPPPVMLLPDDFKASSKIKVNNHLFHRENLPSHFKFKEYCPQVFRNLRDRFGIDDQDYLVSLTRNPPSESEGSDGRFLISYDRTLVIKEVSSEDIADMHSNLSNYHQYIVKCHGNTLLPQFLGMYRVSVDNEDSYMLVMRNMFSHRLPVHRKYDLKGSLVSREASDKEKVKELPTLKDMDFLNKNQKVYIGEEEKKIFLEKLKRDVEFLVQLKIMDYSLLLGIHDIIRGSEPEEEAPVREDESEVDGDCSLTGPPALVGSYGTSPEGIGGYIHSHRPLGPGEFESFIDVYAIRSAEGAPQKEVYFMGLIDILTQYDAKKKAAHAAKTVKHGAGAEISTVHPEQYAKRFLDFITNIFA
For a further experiment, the target named is TAOK2 (Homo sapiens, UniProt Q9UL54). How it is done: as §1
In the next experiment the target is TEK (Homo sapiens, UniProt Q02763). As to the method:
as §1

For the next experiment, the target named is TNK2 (Homo sapiens, UniProt Q07912). How it is done: as §1

Sequence of CDK7 (P50613 whole entry): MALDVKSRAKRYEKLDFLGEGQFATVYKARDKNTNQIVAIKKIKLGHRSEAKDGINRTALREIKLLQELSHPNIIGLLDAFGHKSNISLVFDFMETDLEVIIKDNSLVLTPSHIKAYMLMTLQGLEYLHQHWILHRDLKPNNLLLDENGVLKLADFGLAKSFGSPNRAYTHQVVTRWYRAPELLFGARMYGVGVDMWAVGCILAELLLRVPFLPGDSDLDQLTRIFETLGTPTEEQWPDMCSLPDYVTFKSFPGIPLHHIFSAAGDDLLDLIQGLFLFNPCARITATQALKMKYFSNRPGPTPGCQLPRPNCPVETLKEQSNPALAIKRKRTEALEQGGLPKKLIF
Sequence of NUAK1 (O60285 whole entry): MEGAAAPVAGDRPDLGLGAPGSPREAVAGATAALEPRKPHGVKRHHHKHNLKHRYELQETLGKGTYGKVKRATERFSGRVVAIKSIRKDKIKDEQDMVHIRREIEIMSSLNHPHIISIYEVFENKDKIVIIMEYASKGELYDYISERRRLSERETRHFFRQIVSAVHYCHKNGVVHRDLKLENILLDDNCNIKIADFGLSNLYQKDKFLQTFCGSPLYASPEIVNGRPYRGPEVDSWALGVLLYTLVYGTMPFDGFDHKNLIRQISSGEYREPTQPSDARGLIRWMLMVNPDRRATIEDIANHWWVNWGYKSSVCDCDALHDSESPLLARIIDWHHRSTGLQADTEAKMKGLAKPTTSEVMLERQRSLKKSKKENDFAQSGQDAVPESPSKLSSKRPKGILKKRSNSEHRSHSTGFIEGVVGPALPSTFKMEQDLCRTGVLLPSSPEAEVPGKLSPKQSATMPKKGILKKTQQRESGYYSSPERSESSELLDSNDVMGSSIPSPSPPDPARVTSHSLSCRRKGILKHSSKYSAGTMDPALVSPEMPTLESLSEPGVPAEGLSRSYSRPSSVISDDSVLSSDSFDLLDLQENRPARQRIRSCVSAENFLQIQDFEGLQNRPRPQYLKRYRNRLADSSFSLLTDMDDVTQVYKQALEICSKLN
Sequence of GAK (O14976 whole entry): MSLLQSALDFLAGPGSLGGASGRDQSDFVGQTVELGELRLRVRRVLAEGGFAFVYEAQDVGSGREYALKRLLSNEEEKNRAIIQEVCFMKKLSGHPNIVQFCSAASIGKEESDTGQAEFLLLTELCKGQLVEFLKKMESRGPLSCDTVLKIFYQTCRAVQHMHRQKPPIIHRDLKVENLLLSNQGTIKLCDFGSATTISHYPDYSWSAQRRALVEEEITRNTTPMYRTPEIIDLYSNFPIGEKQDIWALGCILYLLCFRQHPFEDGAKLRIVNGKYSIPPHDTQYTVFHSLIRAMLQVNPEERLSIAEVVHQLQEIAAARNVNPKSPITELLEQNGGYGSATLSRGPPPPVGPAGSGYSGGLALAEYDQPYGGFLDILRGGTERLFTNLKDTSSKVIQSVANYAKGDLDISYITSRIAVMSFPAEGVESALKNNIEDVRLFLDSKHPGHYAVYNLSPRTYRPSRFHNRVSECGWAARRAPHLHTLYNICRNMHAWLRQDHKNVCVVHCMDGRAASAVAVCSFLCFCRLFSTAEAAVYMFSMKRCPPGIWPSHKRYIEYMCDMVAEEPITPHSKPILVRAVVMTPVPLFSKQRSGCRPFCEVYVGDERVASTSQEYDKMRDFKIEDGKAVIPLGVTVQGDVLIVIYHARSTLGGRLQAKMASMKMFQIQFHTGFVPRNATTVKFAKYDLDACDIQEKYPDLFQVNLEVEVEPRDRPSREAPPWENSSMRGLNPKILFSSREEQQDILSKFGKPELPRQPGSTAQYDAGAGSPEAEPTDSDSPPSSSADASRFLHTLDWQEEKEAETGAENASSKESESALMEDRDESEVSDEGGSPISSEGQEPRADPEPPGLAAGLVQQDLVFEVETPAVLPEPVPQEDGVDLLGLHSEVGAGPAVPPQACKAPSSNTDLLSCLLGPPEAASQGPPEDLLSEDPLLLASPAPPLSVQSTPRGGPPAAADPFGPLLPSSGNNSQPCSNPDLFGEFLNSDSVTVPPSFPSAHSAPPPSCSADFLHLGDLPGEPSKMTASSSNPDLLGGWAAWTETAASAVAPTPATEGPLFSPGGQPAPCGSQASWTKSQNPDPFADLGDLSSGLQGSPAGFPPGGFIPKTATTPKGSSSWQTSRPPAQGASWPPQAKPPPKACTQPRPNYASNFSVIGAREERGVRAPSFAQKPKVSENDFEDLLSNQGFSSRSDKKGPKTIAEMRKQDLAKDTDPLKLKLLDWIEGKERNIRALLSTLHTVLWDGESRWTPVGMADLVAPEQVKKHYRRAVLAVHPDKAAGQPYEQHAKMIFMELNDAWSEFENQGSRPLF

For the compound `Oc1ccc(C2=Cc3ccc(O)cc3OC2)cc1` [compound 1, idronoxil], the remaining binding at 10 µM is 74% at ACVR1; 53% at ACVR2B; 84% at AKT3; 67% on CDK7; 74% at DSTYK; 88% at ERBB2. Also, the remaining binding at 10 µM at FLT3 came out at 80%; on GAK, 58%; on MAP3K15, 100%; at MAPK1, 100%; at MAPK13, 100%; on MATK, 61%. Besides, the remaining binding at 10 µM at MYLK came to 52%; at NUAK1, 97%; at PHKG1, 57%; at PIK3CB, 98%; at PIP4K2C, 52%; on TAOK2 it was 90%. For the same compound, the remaining binding at 10 µM is 96% at TEK and 91% on TNK2.
